What was measured:
[1] = target: Recombinant human JAK1 catalytic domain (Homo sapiens (Human), UniProt P23458); assay: JAK1 inhibition assay; assay type: biochemical; conditions: semi-quantitative score
How it was run: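 Radiometric assay read by scintillation counting after phosphoric-acid washes. Percent inhibition calculated from cpm relative to vehicle and 10 μM staurosporine control. IC50 derived from compound dose-dilution series.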

[2] = target: Recombinant human JAK2 catalytic domain (Homo sapiens (Human), UniProt O60674); assay: JAK2 inhibition assay; assay type: biochemical; conditions: semi-quantitative score
Sequence of Recombinant human JAK2 catalytic domain (O60674 808-1132): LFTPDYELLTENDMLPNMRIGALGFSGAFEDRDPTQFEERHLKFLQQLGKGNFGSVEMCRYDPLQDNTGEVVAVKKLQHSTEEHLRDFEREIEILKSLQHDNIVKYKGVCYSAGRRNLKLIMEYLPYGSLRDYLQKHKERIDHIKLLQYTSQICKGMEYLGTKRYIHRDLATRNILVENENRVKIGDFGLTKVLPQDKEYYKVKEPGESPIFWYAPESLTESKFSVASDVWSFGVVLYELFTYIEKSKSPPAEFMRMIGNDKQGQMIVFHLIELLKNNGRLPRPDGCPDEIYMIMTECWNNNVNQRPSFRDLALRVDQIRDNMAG
How it was run: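 Radiometric kinase reactions ran for 90 min at 30 °C and were stopped with phosphoric acid, then washed and counted by scintillation. Percent inhibition was set relative to vehicle and to 10 μM staurosporine background. IC50 was derived from dose-dilution series.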

[3] = test system: JAK-STAT signalling in HeLa cells; assay: JAK-STAT signalling assay (OSM-triggered pSTAT1(2)-luciferase reporter in HeLa cells); assay type: cell-based; conditions: Homo sapiens; HeLa cells, OSM-triggered pSTAT1(2)-luciferase reporter; read-out: STAT signalling EC50
How it was run: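 HeLa cells transiently transfected with pSTAT1(2)-luciferase reporter plus LacZ internal control, incubated overnight at 37 °C, 10% CO2, then OSM-stimulated with compound. Luciferase read by Steadylite luminescence and normalised to β-galactosidase (ONPG); percent inhibition from controls, EC50 from dose-response.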

MMP13 in SW1353 cells = assay: OSM/IL-1β signaling assay (MMP13 levels in SW1353 cells); assay type: cell-based; conditions: Homo sapiens; SW1353 cells, OSM and IL-1β triggered, MMP13 levels 48 hours after triggering; read-out: MMP13 EC50;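 further: secreted MMP13 captured by antibody, activated with APMA and its activity read by fluorescence, inhibition scaled between vehicle-treated triggered wells (0%) and untriggered wells (100%)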
[4] = Microsomal stability, human liver microsomes; assay type: in vitro ADME; conditions: percentage of compound remaining after 60 minutes, 3 μM compound
Protocol: (§1) 40 μL of deionised water was added to a well of a polypropylene Matrix 2D barcode labelled storage tube (Thermo Scientific) and pre-incubated at 37° C.
(§2) A co-factor containing MgCl2, glucose-6-phosphate and NADP+ was prepared in deionised water and placed on ice before use.
(§3) A final working solution containing liver microsomes (Xenotech of a species of interest (human, mouse, rat, dog), previously described G6PDH and co-factors was prepared and this mix was incubated for no longer than 20 minutes at room temperature.
(§4) 30 μL of the pre-heated compound dilution was added to 40 μL of pre-heated water in the Matrix tubes and 30 μL of the microsomal mix was added.
(§5) To measure percentage remaining of compound at time zero MeOH or ACN was added (1:1) to the well before adding the microsomal mix.
(§6) The samples which were not stopped are incubated at 37° C., 300 rpm and after 1 hour of incubation the reaction was stopped with MeOH or ACN (1:1).
(§7) After stopping the reaction the samples were mixed and placed on ice for 30 min to precipitate the proteins.
(§8) The samples were analyzed on LCMS with a flow rate of 1 mL/min. Solvent A was 15 mM ammonia and solvent B was methanol or acetonitrile, depending on the stop solution used. […] The percentage remaining after 1 hour incubation was calculated from time 0 and was calculated as the percentage remaining.
(§9) The data on microsomal stability are expressed as a percentage of the total amount of compound remaining after 60 minutes.

[5] = Microsomal stability, rat liver microsomes; assay type: in vitro ADME; conditions: percentage of compound remaining after 60 minutes, 3 μM compound
Protocol: as §1, §2, §3, §4, §5, §6, §7, §8, §9

Sequence of Recombinant human JAK1 catalytic domain (P23458 850-1154): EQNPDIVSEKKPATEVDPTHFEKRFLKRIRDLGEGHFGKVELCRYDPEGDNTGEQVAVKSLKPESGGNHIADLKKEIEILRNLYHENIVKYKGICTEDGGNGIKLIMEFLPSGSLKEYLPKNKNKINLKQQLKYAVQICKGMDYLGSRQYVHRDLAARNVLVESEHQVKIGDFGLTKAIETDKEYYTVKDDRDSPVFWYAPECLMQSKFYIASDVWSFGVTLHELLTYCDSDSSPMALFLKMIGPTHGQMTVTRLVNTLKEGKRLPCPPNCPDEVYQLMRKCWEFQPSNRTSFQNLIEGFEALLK

| Structure (SMILES) | IC50 [1] [nM] | IC50 [2] [nM] | EC50 [3] [nM] | EC50 (MMP13 in SW1353 cells) [nM] | Microsomal Stability Human (%) [4] | Microsomal Stability Rat (%) [5] |
| --- | --- | --- | --- | --- | --- | --- |
| O=C(Nc1nc2cccc(-c3ccc(OCCOc4ccc(F)cc4)cc3)n2n1)C1CC1 [Compound 115, N-(5-(4-(2-(4-fluorophenoxy)ethoxy)phenyl)-[1,2,4]triazolo[1,5-a]pyridin-2-yl)cyclopropanecarboxamide] | < 100 | 101 to 500 | > 1000 | > 1000 | *** (*** 51-75) | ** (** 26-50) |
| O=C(NCCc1cccnc1)c1ccc(-c2cccc3nc(NC(=O)C4CC4)nn23)cc1 [Compound 124, 4-(2-(cyclopropanecarboxamido)-[1,2,4]triazolo[1,5-a]pyridin-5-yl)-N-(2-(pyridin-3-yl)ethyl)benzamide] | < 100 | – | > 1000 | > 1000 | * (* 0-25) | * (* 0-25) |
| CC1CC(C)CN(C(=O)c2ccc(-c3cccc4nc(NC(=O)C5CC5)nn34)cc2)C1 (centres unmarked) [Compound 134] | < 100 | – | 501 to 1000 | > 1000 | *** (*** 51-75) | ** (** 26-50) |
| O=C(Nc1nc2cccc(-c3ccc(C(=O)N4CCC(F)CC4)cc3)n2n1)C1CC1 [Compound 137, N-(5-(4-(4-fluoropiperidine-1-carbonyl)phenyl)-[1,2,4]triazolo[1,5-a]pyridin-2-yl)cyclopropanecarboxamide] | < 100 | – | 501 to 1000 | > 1000 | *** (*** 51-75) | **** (**** 76-100) |
| O=C(Nc1nc2cccc(-c3ccc(C(=O)N4CCC(c5cc6ccccc6[nH]5)CC4)cc3)n2n1)C1CC1 [Compound 138] | < 100 | – | 101 to 500 | > 1000 | ** (** 26-50) | *** (*** 51-75) |
| CC1CCCCN1C(=O)c1ccc(-c2cccc3nc(NC(=O)C4CC4)nn23)cc1 (centres unmarked) [Compound 144, N-(5-(4-(2-methylpiperidine-1-carbonyl)phenyl)-[1,2,4]triazolo[1,5-a]pyridin-2-yl)cyclopropanecarboxamide] | < 100 | – | > 1000 | > 1000 | ** (** 26-50) | * (* 0-25) |
| O=C(Nc1nc2cccc(-c3ccc(OCc4ccc(-c5cn[nH]c5)nc4)cc3)n2n1)C1CC1 [Compound 166] | < 100 | – | > 1000 | > 1000 | *** (*** 51-75) | * (* 0-25) |
| O=C(Nc1nc2cccc(-c3ccc(C(=O)N4CCCC(c5ccccc5)C4)cc3)n2n1)C1CC1 (centres unmarked) [Compound 169, N-(5-(4-(3-phenylpiperidine-1-carbonyl)phenyl)-[1,2,4]triazolo[1,5-a]pyridin-2-yl)cyclopropanecarboxamide] | < 100 | – | > 1000 | > 1000 | * (* 0-25) | * (* 0-25) |
| N#CC1(C(=O)Nc2ccc(-c3cccc4nc(NC(=O)C5CC5)nn34)cc2)CC1 [Compound 177, 1-cyano-N-(4-(2-(cyclopropanecarboxamido)-[1,2,4]triazolo[1,5-a]pyridin-5-yl)phenyl)cyclopropanecarbox-amide] | < 100 | – | > 1000 | > 1000 | **** (**** 76-100) | **** (**** 76-100) |
| Cn1cc(-c2ccc(COc3ccc(-c4cccc5nc(NC(=O)C6CC6)nn45)cc3)cn2)cn1 [Compound 178] | < 100 | – | > 1000 | > 1000 | * (* 0-25) | ** (** 26-50) |
| COC(=O)c1ccc(COc2ccc(-c3cccc4nc(NC(=O)C5CC5)nn34)cc2)nc1 [Compound 190] | < 100 | – | > 1000 | > 1000 | * (* 0-25) | * (* 0-25) |
| O=C(Nc1nc2cccc(-c3ccc(OCc4ccc[n+]([O-])c4)cc3)n2n1)C1CC1 [Compound 196, Cyclopropanecarboxylic acid {5-[4-(1-hydroxy-pyridin-3-ylmethoxy)-phenyl]-[1,2,4]triazolo[1,5-a]pyridin-2-yl}-amide] | < 100 | 101 to 500 | > 1000 | > 1000 | **** (**** 76-100) | **** (**** 76-100) |

The remaining lines, values ahead:

| IC50 [1] [nM] | IC50 [2] [nM] | EC50 [3] [nM] | EC50 (MMP13 in SW1353 cells) [nM] | Microsomal Stability Human (%) [4] | Microsomal Stability Rat (%) [5] | Structure (SMILES) |
| --- | --- | --- | --- | --- | --- | --- |
| < 100 | 101 to 500 | > 1000 | > 1000 | ** (** 26-50) | ** (** 26-50) | O=C(Nc1nc2cccc(-c3ccc(-c4ccccc4)cc3)n2n1)C1CC1 [Compound 7, N-(5-(biphenyl-4-yl)-[1,2,4]triazolo[1,5-a]pyridin-2-yl)cyclopropanecarboxamide] |
| < 100 | 101 to 500 | > 1000 | > 1000 | *** (*** 51-75) | **** (**** 76-100) | O=C(Nc1ccc(-c2cccc3nc(NC(=O)C4CC4)nn23)cc1)c1ccccc1 [Compound 21, N-(4-(2-(cyclopropanecarboxamido)-[1,2,4]triazolo[1,5-a]pyridin-5-yl)phenyl)benzamide] |
| < 100 | 101 to 500 | > 1000 | > 1000 | * (* 0-25) | ** (** 26-50) | O=C(Cc1ccccc1)Nc1ccc(-c2cccc3nc(NC(=O)C4CC4)nn23)cc1 [Compound 23, N-(5-(4-(2-phenylacetamido)phenyl)-[1,2,4]triazolo[1,5-a]pyridin-2-yl)cyclopropanecarboxamide] |
| < 100 | – | > 1000 | > 1000 | * (* 0-25) | * (* 0-25) | O=C(N[C@@H]1CCN(Cc2ccccc2)C1)c1ccc(-c2cccc3nc(NC(=O)C4CC4)nn23)cc1 [Compound 120, (R)-N-(1-benzylpyrrolidin-3-yl)-4-(2-(cyclopropanecarboxamido)-[1,2,4]triazolo[1,5-a]pyridin-5-yl)benzamide] |
| < 100 | – | > 1000 | > 1000 | * (* 0-25) | * (* 0-25) | O=C(Nc1nc2cccc(-c3ccc(NS(=O)(=O)CCOc4ccccc4)cc3)n2n1)C1CC1 [Compound 122, N-(5-(4-(2-phenoxyethylsulfonamido)phenyl)-[1,2,4]triazolo[1,5-a]pyridin-2-yl)cyclopropanecarboxamide] |
| < 100 | – | > 1000 | > 1000 | * (* 0-25) | * (* 0-25) | O=C(Nc1nc2cccc(-c3ccc(NCCc4ccccc4)nc3)n2n1)C1CC1 [Compound 123, N-(5-(6-(phenethylamino)pyridin-3-yl)-[1,2,4]triazolo[1,5-a]pyridin-2-yl)cyclopropanecarboxamide] |
| < 100 | – | > 1000 | > 1000 | *** (*** 51-75) | * (* 0-25) | CN(C)CCN(Cc1ccccc1)C(=O)c1ccc(-c2cccc3nc(NC(=O)C4CC4)nn23)cc1 [Compound 150, N-benzyl-4-(2-(cyclopropanecarboxamido)-[1,2,4]triazolo[1,5-a]pyridin-5-yl)-N-(2-(dimethylamino)ethyl)benzamide] |
| < 100 | – | > 1000 | > 1000 | * (* 0-25) | * (* 0-25) | O=C(Nc1nc2cccc(-c3ccc(NCc4cccnc4)cc3)n2n1)C1CC1 [Compound 182, N-(5-(4-(pyridin-3-ylmethylamino)phenyl)-[1,2,4]triazolo[1,5-a]pyridin-2-yl)cyclopropanecarboxamide] |
| < 100 | – | > 1000 | 501 to 1000 | ** (** 26-50) | **** (**** 76-100) | NC(=O)c1ccc(NCc2ccc(-c3cccc4nc(NC(=O)C5CC5)nn34)cc2)cc1 [Compound 227, 4-{4-[2-(Cyclopropanecarbonyl-amino)-[1,2,4]triazolo[1,5-a]pyridin-5-yl]-benzylamino}-benzamide] |

— patent US10206907B2, “Compounds useful for the treatment of degenerative and inflammatory diseases” (GALAPAGOS NV, priority 2008, dated 2019)
